ChEMBL document CHEMBL4665834 (J Med Chem, 2020)
pIC50: −log10 of the molar value. In brackets after ≈: the same amount, converted by molar mass.

Legend:
[1] = Solubility of compound in phosphate buffer at pH 8 using crystalline form of sample; format: physicochemical
[2] = Solubility of compound in 0.1 M HCl using crystalline form of sample; format: physicochemical
Cytochrome P450 2D6 = Cytochrome P450 2D6 (Homo sapiens, UniProt P10635); test: Inhibition of CYP2D6 in human liver microsomes using dextromethorphan as substrate incubated for 15 mins in presence of NADPH generating system by LC-MS/MS analysis; format: ADME
Cytochrome P450 2D6, sequence (P10635 whole entry): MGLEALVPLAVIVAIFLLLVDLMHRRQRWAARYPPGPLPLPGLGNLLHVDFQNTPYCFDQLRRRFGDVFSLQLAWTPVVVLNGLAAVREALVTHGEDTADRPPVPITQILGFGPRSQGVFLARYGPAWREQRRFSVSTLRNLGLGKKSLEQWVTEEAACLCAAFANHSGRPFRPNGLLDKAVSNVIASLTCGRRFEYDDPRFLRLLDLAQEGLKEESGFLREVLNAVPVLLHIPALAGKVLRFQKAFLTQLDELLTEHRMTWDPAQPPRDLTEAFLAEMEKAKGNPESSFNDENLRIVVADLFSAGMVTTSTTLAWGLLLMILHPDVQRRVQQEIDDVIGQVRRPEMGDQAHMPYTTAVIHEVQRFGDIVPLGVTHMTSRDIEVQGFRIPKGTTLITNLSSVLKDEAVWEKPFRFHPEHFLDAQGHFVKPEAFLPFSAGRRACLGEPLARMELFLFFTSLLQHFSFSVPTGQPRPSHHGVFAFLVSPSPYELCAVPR

Cytochrome P450 2C9 = Cytochrome P450 2C9 (Homo sapiens, UniProt P11712); test: Inhibition of CYP2C9 in human liver microsomes using diclofenac as substrate incubated for 15 mins in presence of NADPH generating system by LC-MS/MS analysis; format: ADME
Cytochrome P450 2C9, sequence (P11712 whole entry): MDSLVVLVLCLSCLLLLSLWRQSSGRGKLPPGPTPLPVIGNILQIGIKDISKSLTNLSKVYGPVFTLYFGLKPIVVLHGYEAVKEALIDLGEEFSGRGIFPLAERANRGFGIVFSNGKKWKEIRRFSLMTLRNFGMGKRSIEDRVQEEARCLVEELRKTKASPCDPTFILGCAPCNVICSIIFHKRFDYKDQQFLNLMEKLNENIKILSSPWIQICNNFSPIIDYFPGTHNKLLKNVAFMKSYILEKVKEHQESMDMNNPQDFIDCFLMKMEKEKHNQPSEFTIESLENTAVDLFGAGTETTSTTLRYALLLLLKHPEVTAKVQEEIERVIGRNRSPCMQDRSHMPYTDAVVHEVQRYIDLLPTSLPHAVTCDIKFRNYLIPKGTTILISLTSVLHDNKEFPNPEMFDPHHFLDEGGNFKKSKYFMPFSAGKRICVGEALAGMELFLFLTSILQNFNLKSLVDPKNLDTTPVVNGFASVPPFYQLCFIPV

Cytochrome P450 2C8 = Cytochrome P450 2C8 (Homo sapiens, UniProt P10632); test: Inhibition of CYP2C8 in human liver microsomes using amodiaquine as substrate incubated for 15 mins in presence of NADPH generating system by LC-MS/MS analysis; format: ADME
Cytochrome P450 2C8, sequence (P10632 whole entry): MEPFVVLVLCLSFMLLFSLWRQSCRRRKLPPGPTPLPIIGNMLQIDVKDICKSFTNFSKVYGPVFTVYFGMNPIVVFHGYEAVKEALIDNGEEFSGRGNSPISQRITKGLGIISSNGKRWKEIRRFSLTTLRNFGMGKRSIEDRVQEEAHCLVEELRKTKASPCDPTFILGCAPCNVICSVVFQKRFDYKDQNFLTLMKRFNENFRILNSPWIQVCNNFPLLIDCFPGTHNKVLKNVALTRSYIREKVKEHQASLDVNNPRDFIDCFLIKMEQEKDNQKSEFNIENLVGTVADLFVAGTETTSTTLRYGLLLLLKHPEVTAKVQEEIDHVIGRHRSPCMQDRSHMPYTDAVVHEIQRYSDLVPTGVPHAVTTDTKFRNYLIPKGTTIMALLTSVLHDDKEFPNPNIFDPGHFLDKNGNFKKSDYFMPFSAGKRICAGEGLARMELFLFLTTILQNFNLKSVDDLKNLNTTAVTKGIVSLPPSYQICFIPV

Cytochrome P450 1A2 = Cytochrome P450 1A2 (Homo sapiens, UniProt P05177); test: Inhibition of CYP1A2 in human liver microsomes using phenacetin as substrate incubated for 15 mins in presence of NADPH generating system by LC-MS/MS analysis; format: ADME
Cytochrome P450 1A2, sequence (P05177 whole entry): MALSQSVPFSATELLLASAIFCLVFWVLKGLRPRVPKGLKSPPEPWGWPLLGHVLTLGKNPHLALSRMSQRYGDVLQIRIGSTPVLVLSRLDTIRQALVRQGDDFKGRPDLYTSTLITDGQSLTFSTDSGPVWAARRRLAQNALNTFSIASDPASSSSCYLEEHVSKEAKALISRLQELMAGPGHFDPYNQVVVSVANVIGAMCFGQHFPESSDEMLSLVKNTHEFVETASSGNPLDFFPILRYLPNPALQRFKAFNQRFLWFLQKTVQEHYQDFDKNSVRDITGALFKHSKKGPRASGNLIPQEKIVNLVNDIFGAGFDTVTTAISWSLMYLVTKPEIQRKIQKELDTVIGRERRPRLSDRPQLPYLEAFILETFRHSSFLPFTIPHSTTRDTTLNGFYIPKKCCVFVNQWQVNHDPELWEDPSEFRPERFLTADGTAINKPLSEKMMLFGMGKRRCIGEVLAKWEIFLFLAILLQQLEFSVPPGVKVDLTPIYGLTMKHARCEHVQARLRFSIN

[3] = Oral bioavailability in Wistar rat at 1 to 3 mg/kg administered via gavage using EtOH/PEG400/H2O 10/40/50 formulation by LC-MS/MS analysis; format: ADME, organism-based; conditions: in vivo, dose 1-3 mg/kg
Prostacyclin receptor = Prostacyclin receptor (Homo sapiens, UniProt P43119); test: Displacement of [3H]PGD2 from full-length recombinant human IP receptor expressed in HEK293 cell membranes measured after 60 mins by scintillation counting method
Prostacyclin receptor, sequence (P43119 whole entry): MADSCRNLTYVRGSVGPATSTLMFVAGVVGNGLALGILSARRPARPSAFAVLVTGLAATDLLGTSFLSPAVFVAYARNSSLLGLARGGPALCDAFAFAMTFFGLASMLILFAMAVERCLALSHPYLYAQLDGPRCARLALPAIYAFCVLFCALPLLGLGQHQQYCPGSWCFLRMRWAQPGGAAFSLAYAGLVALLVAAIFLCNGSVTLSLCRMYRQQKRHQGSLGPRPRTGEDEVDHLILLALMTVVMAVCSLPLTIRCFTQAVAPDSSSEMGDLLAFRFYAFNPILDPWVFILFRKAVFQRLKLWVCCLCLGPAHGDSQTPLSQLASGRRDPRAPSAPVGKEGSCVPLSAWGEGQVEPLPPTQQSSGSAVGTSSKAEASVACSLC

Cytochrome P450 3A4 = Cytochrome P450 3A4 (Homo sapiens, UniProt P08684); test: Inhibition of CYP3A4 in human liver microsomes using midazolam as substrate incubated for 10 mins in presence of NADPH generating system by LC-MS/MS analysis
[4] = target: Prostaglandin E2 receptor EP3 subtype (Homo sapiens, UniProt P43115); test: Displacement of [3H]prostaglandin E2 from full-length recombinant human EP3 receptor expressed in HEK293 cell membranes measured after 120 mins by scintillation counting method
Prostaglandin E2 receptor EP3 subtype, sequence (P43115 whole entry): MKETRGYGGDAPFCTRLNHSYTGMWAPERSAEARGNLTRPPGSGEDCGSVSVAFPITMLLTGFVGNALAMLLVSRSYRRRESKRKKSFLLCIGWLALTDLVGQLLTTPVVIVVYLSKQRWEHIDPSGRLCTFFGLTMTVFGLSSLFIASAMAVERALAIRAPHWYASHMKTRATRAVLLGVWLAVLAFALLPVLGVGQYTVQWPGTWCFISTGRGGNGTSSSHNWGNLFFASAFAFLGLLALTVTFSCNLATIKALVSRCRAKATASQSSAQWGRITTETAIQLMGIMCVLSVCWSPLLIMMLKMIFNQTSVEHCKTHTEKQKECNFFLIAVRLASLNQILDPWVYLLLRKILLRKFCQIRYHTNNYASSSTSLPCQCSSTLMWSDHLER

[5] = target: Prostaglandin E2 receptor EP2 subtype (Homo sapiens, UniProt P43116); test: Displacement of [3H]prostaglandin E2 from full-length recombinant human EP2 receptor expressed in HEK293 cell membranes measured after 120 mins by scintillation counting method
Prostaglandin E2 receptor EP2 subtype, sequence (P43116 whole entry): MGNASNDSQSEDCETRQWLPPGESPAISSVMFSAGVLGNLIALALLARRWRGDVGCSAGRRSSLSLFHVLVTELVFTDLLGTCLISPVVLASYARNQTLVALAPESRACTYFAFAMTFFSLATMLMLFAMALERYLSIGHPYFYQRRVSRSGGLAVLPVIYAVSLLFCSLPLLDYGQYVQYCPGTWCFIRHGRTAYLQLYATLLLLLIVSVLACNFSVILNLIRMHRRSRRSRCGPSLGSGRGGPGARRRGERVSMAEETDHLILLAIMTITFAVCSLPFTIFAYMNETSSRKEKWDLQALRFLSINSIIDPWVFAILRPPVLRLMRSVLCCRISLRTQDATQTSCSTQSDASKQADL

[6] = target: Prostaglandin E2 receptor EP1 subtype (Homo sapiens, UniProt P34995); test: Displacement of [3H]prostaglandin E2 from full-length recombinant human EP1 receptor expressed in HEK293 cell membranes measured after 60 mins by scintillation counting method
Prostaglandin E2 receptor EP1 subtype, sequence (P34995 whole entry): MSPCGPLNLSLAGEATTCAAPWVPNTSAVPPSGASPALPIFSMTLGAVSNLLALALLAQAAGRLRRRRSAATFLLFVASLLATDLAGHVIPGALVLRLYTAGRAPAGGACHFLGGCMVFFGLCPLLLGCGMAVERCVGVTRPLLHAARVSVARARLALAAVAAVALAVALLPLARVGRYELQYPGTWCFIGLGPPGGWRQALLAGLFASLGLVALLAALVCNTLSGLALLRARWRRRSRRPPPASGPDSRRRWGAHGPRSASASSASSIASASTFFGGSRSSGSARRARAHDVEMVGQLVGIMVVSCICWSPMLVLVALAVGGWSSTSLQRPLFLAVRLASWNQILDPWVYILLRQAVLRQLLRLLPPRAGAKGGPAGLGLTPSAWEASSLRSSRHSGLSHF

[7] = Lipophilicity, log D of compound at pH 7.5 by HPLC analysis; conditions: buffer
[8] = target: T1, Prostaglandin F2-alpha receptor (Rattus norvegicus, UniProt P43118); test: Antagonist activity at rat FPR stably expressed in CHO cells assessed as inhibition of PGF2alpha-induced calcium flux preincubated for 10 mins followed by PGF2alpha stimulation and measured for 120 secs by fluo-8 AM dye based fluorescence assay; format: cell-based
T1 sequence (P43118 whole entry): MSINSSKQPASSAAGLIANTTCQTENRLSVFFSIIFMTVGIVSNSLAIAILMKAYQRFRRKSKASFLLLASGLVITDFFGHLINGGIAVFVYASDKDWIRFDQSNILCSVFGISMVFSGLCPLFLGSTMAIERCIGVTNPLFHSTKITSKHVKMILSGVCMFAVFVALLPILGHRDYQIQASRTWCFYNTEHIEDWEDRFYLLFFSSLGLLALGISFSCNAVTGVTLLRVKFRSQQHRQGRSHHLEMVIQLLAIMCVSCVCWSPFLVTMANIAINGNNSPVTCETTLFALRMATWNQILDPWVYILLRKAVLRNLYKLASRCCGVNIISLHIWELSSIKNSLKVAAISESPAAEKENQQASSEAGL

[9] = target: T1, Prostaglandin F2-alpha receptor; test: Antagonist activity at FPR in Wistar rat assessed as inhibition of PGF2alpha-induced uterus contraction; format: tissue-based
[10] = target: T2, Prostaglandin F2-alpha receptor (Mus musculus, UniProt P43117); test: Antagonist activity at FPR in mouse NIH3T3 cells assessed as inhibition of PGF2alpha-induced cytokine induced neutrophil attracting chemokine production measured after 24 hrs by Bio-Rad assay; format: cell-based
T2 sequence (P43117 whole entry): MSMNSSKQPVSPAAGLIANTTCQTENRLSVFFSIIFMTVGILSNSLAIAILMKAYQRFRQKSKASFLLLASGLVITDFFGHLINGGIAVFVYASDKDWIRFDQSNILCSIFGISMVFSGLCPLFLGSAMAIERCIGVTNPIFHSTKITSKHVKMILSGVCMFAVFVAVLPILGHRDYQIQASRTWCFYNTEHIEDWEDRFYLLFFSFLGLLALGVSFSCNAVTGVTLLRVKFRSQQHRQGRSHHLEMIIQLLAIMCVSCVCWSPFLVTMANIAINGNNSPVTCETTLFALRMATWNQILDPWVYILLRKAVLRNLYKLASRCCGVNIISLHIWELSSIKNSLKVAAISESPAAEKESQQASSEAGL

[11] = target: T2, Prostaglandin F2-alpha receptor; test: Antagonist activity at FPR in mouse NIH3T3 cells assessed as inhibition of PGF2alpha-induced MCP1 production measured after 24 hrs by Bio-Rad assay; format: cell-based
[12] = target: Prostaglandin D2 receptor 2 (Homo sapiens, UniProt Q9Y5Y4); test: Displacement of [3H]PGD2 from full-length recombinant human CRTH2 receptor expressed in CHOK1 cell membranes measured after 120 mins by scintillation counting method; parameters: species or system CHO-K1
Prostaglandin D2 receptor 2, sequence (Q9Y5Y4 whole entry): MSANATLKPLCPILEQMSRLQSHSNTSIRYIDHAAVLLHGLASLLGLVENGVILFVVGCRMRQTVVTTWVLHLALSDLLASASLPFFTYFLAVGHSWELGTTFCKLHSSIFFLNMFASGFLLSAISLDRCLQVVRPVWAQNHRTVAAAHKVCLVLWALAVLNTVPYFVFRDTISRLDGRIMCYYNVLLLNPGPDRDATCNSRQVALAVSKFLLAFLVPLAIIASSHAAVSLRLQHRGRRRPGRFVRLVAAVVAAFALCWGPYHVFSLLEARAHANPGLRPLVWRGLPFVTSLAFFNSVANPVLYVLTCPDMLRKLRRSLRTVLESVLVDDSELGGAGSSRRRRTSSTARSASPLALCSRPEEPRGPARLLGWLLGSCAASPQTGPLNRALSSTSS

Thromboxane A2 receptor = Thromboxane A2 receptor (Homo sapiens, UniProt P21731); test: Antagonist activity at recombinant full-length human TP receptor expressed in HEK293 cells assessed as inhibition of U-44069-induced response measured after 30 mins by TR-FRET assay; format: cell-based
[13] = Maximum oral bioavailability in human hepatocytes based well stirred liver model at 1 uM measured after 2 to 90 mins by LC-MS/MS analysis; format: ADME, Hepatocyte; conditions: time 2-90 min, read-out: Fmax
[14] = Maximum oral bioavailability in dog hepatocytes based well stirred liver model at 1 uM measured after 2 to 90 mins by LC-MS/MS analysis; format: ADME, Canis lupus familiaris, Hepatocyte; conditions: time 2-90 min, read-out: Fmax
[15] = Drug metabolism in human hepatocytes assessed as oxidation at the pyrrolidine ring at 1 uM measured after 1 to 4 hrs by LC-MS/MS analysis; format: ADME, cell-based, Hepatocyte; conditions: time 1-4 hrs
[16] = Drug metabolism in human hepatocytes assessed as formation of hydroxylated and ring-opened pyrrolidine derivative at 1 uM measured after 1 to 4 hrs by LC-MS/MS analysis; format: ADME, cell-based, Hepatocyte; conditions: time 1-4 hrs
[17] = Drug metabolism in rat hepatocytes assessed as oxidation at the pyrrolidine ring at 1 uM measured after 1 to 4 hrs by LC-MS/MS analysis; format: ADME, cell-based, Hepatocyte; conditions: time 1-4 hrs
[18] = Drug metabolism in rat hepatocytes assessed as formation of hydroxylated and ring-opened pyrrolidine derivative at 1 uM measured after 1 to 4 hrs by LC-MS/MS analysis; format: ADME, cell-based, Hepatocyte; conditions: time 1-4 hrs
[19] = Drug metabolism in dog hepatocytes assessed as glucuronidation at 1 uM measured after 1 to 4 hrs by LC-MS/MS analysis; format: ADME, cell-based, Canis lupus familiaris, Hepatocyte; conditions: time 1-4 hrs
[20] = Volume of distribution at steady state in Balb/c mouse at 1 mg/kg, iv administered as bolus dose or 3 mg/kg, po administered via gavage by LC-MS/MS analysis; format: ADME, organism-based; conditions: in vivo, read-out: Vdss
[21] = Terminal half life in Balb/c mouse at 1 mg/kg, iv administered as bolus dose by LC-MS/MS analysis; format: ADME, organism-based; conditions: in vivo, read-out: beta t1/2 (converted)
[22] = Oral bioavailability in Balb/c mouse at 3 mg/kg administered via gavage by LC-MS/MS analysis; format: ADME, organism-based; conditions: in vivo
[23] = Clearance in Wistar rat at 1 mg/kg, iv administered as bolus dose or 3 mg/kg, po administered via gavage by LC-MS/MS analysis; format: ADME, organism-based; conditions: in vivo
[24] = Oral bioavailability in Wistar rat at 3 mg/kg administered via gavage by LC-MS/MS analysis; format: ADME, organism-based; conditions: in vivo
[25] = Clearance in Beagle dog at 0.5 mg/kg, iv administered as 15 mins infusion or 1 mg/kg, po administered via gavage by LC-MS/MS analysis; format: ADME, organism-based, Canis lupus familiaris; conditions: in vivo
[26] = Volume of distribution at steady state in Beagle dog at 0.5 mg/kg, iv administered as 15 mins infusion or 1 mg/kg, po administered via gavage by LC-MS/MS analysis; format: ADME, organism-based, Canis lupus familiaris; conditions: in vivo, read-out: Vdss
[27] = Terminal half life in Beagle dog at 0.5 mg/kg, iv administered as 15 mins infusion by LC-MS/MS analysis; format: ADME, organism-based, Canis lupus familiaris; conditions: in vivo, read-out: beta t1/2 (converted)
[28] = Oral bioavailability in Beagle dog at 1 mg/kg administered via gavage by LC-MS/MS analysis; format: ADME, organism-based, Canis lupus familiaris; conditions: in vivo
[29] = Toxicity in Wistar rat up to 300 mg/kg/day, po administered for 14 days; format: organism-based; conditions: in vivo, 336 h, time 14 day

## Cc1c(N2CCCC2)nc2ccc(Br)cc2c1C(=O)NC[C@H](CCC(=O)O)c1ccccc1Cl [BAY-6672]
[1]
  solubility thermodynamic: 290 µg/mL (≈ 532 µM)
[2]
  solubility: 440 µg/mL (≈ 808 µM)
Cytochrome P450 2D6
  pIC50: < 4.70
Cytochrome P450 2C9
  pIC50: < 4.70
Cytochrome P450 2C8
  pIC50: < 4.70
Cytochrome P450 1A2
  pIC50: < 4.70
[3]
  bioavailability: 91%
Prostacyclin receptor
  pIC50: < 5.00
Cytochrome P450 3A4
  pIC50: < 4.70
[4]
  pIC50: < 5.00
[5]
  pIC50: < 5.00
[6]
  pIC50: < 5.00
[7]
  logD: 2.3
[8]
  pIC50: 7.96
[9]
  pIC50: 7.28
[10]
  pIC50: 7.92
[11]
  pIC50: 7.74
[12]
  pIC50: < 5.00
Thromboxane A2 receptor
  pIC50: 5.66
[13]
  Fh at 1 µM: 66%
[14]
  Fh at 1 µM: 18%
[15]
  Drug metabolism: Metabolite_Detected
[16]
  Drug metabolism: Metabolite_Detected
[17]
  Drug metabolism: Metabolite_Detected
[18]
  Drug metabolism: Metabolite_Detected
[19]
  Drug metabolism: Metabolite_Detected
[20]
  Vd: 2 L/kg
[21]
  half-life: 3.4 h
[22]
  bioavailability: 94%
[23]
  clearance: 11.7 mL/min/kg
[24]
  bioavailability: 91%
[25]
  clearance: 13.3 mL/min/kg
[26]
  Vd: 1.8 L/kg
[27]
  half-life: 14 h
[28]
  bioavailability: 45%
[29]
  Activity: Non-Toxic
